Measurements taken from PubChem BioAssay (NCI).
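96-well plates; 48 h exposure; 5 concentrations. Endpoints by linear interpolation between flanking doses. Not reached: highest tested concentration assigned. GI50 is the concentration that inhibits growth by half. The concentration for full growth arrest is given as TGI.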

How the values were obtained:
Assay in all cases: inhibition of tumour cell growth, NCI panel, 48 h
[1] = test system: SW-620 colon
[2] = test system: KM12 colon
[3] = test system: PC-3 prostate
[4] = test system: 786-0 renal
[5] = test system: NCI-H226 lung
[6] = test system: UACC-257 melanoma
[7] = test system: MOLT-4 leukemia
[8] = test system: UACC-62 melanoma
[9] = test system: HCT-116 colon
[10] = test system: ACHN renal
[11] = test system: SR leukemia
[12] = test system: NCI-H23 lung
[13] = test system: HS 578T breast
[14] = test system: HOP-92 NSCLC
[15] = test system: HCT-15 colon
[16] = test system: MALME-3M melanoma
[17] = test system: HT29 colon
[18] = test system: DU-145 prostate
[19] = test system: SK-OV-3 ovarian
[20] = test system: OVCAR-5 ovarian
[21] = test system: M14 melanoma
[22] = test system: U251 CNS
[23] = test system: MDA-MB-435
[24] = test system: CAKI-1 renal
[25] = test system: LOX IMVI melanoma
[26] = test system: UO-31 renal
[27] = test system: RPMI-8226 leukemia
[28] = test system: IGROV1 ovarian
[29] = test system: COLO 205 colon
[30] = test system: SK-MEL-5 melanoma
[31] = test system: HCC-2998 colon
[32] = test system: SF-295 CNS
[33] = test system: NCI-H522 lung
[34] = test system: BT-549 breast
[35] = test system: A498 renal
[36] = test system: SNB-75 CNS
[37] = test system: OVCAR-8 ovarian
[38] = test system: EKVX NSCLC
[39] = test system: HL-60(TB) leukemia
[40] = test system: SN12C renal
[41] = test system: TK-10 renal
[42] = test system: OVCAR-3 ovarian
[43] = test system: SF-539 CNS
[44] = test system: MCF7 breast
[45] = test system: A549 NSCLC
[46] = test system: OVCAR-4 ovarian
[47] = test system: HOP-62 NSCLC
[48] = test system: K-562 leukemia
[49] = test system: SK-MEL-28 melanoma
[50] = test system: MDA-MB-231 breast
[51] = test system: SNB-19 CNS
[52] = test system: T-47D breast
[53] = test system: RXF 393 renal
[54] = test system: CCRF-CEM leukemia
[55] = test system: SF-268 CNS
[56] = test system: NCI/ADR-RES ovarian
[57] = test system: NCI-H460 lung
[58] = test system: SK-MEL-2 melanoma

`FC(F)(F)c1ccc2c(c1)N(CCCN1CCN(C3CC3)CC1)c1ccccc1S2` was tested, and the GI50 [1] was 4.42 µM, the TGI [1] was 18.1 µM and the GI50 [2] was 7.68 µM. It also gave a TGI [2] of 21 µM, a GI50 [3] of 5.81 µM and a TGI [3] of 20.2 µM. The GI50 [4] was 15.4 µM, the TGI [4] was 30.3 µM and the GI50 [5] was 10.7 µM. The TGI [5] was 23.4 µM, the GI50 [6] was 5.57 µM and the TGI [6] was 19 µM. It also gave a GI50 [7] of 6.13 µM, a TGI [7] of 23.7 µM and a GI50 [8] of 14.1 µM. For the same compound, the TGI [8] was 30.1 µM, the GI50 [9] was 9.43 µM and the TGI [9] was 23.2 µM. For the same compound, the GI50 [10] was 10.6 µM, the TGI [10] was 24.6 µM and the GI50 [11] was 3.79 µM. The TGI [11] was 15.6 µM, the GI50 [12] was 7.42 µM and the TGI [12] was 23.1 µM. For the same compound, the GI50 [13] was 10.3 µM, the TGI [13] was 27.1 µM and the GI50 [14] was 13.9 µM. It also gave a TGI [14] of 28.1 µM, a GI50 [15] of 3.81 µM and a TGI [15] of 18.6 µM. The GI50 [16] was 14 µM, the TGI [16] was 31.7 µM and the GI50 [17] was 3.48 µM. For the same compound, the TGI [17] was 13.8 µM, the GI50 [18] was 13.8 µM and the TGI [18] was 28.6 µM. It also gave a GI50 [19] of 12.9 µM, a TGI [19] of 26.6 µM and a GI50 [20] of 13.2 µM. The TGI [20] was 27.6 µM, the GI50 [21] was 15.1 µM and the TGI [21] was 30.7 µM. It also gave a GI50 [22] of 4.94 µM, a TGI [22] of 18 µM and a GI50 [23] of 12.2 µM. The TGI [23] was 27.6 µM, the GI50 [24] was 3.6 µM and the TGI [24] was 16.1 µM. For the same compound, the GI50 [25] was 13.7 µM, the TGI [25] was 28.3 µM and the GI50 [26] was 8.13 µM. For the same compound, the TGI [26] was 22.9 µM, the GI50 [27] was 6.18 µM and the TGI [27] was 25.8 µM. It also gave a GI50 [28] of 11.6 µM, a TGI [28] of 28.3 µM and a GI50 [29] of 9.45 µM. For the same compound, the TGI [29] was 21.5 µM, the GI50 [30] was 4.08 µM and the TGI [30] was 14.4 µM. For the same compound, the GI50 [31] was 13.6 µM, the TGI [31] was 27.5 µM and the GI50 [32] was 3.74 µM. For the same compound, the TGI [32] was 18.4 µM, the GI50 [33] was 11.5 µM and the TGI [33] was 25.8 µM. For the same compound, the GI50 [34] was 16.7 µM, the TGI [34] was 35.4 µM and the GI50 [35] was 11 µM. It also gave a TGI [35] of 23.3 µM, a GI50 [36] of 13.5 µM and a TGI [36] of 28.1 µM. For the same compound, the GI50 [37] was 13 µM, the TGI [37] was 26.8 µM and the GI50 [38] was 6.09 µM. The TGI [38] was 22.2 µM, the GI50 [39] was 6.03 µM and the TGI [39] was 23.3 µM. It also gave a GI50 [40] of 13.3 µM, a TGI [40] of 28.1 µM and a GI50 [41] of 13.8 µM. It also gave a TGI [41] of 27.2 µM, a GI50 [42] of 7.11 µM and a TGI [42] of 20.3 µM. The GI50 [43] was 14 µM, the TGI [43] was 29.5 µM and the GI50 [44] was 9.53 µM. For the same compound, the TGI [44] was 22.1 µM, the GI50 [45] was 10.9 µM and the TGI [45] was 23.5 µM. It also gave a GI50 [46] of 11.1 µM, a TGI [46] of 23.7 µM and a GI50 [47] of 14.4 µM. It also gave a TGI [47] of 27.8 µM, a GI50 [48] of 3.98 µM and a TGI [48] of 20.5 µM. For the same compound, the GI50 [49] was 15.2 µM, the TGI [49] was 29.1 µM and the GI50 [50] was 10.9 µM. The TGI [50] was 26.1 µM, the GI50 [51] was 17.1 µM and the TGI [51] was 36.2 µM. It also gave a GI50 [52] of 12.5 µM, a TGI [52] of 26.9 µM and a GI50 [53] of 11.5 µM. It also gave a TGI [53] of 24.1 µM, a GI50 [54] of 9.11 µM and a TGI [54] of 29.3 µM. The GI50 [55] was 12.7 µM, the TGI [55] was 26.8 µM and the GI50 [56] was 10.3 µM. The TGI [56] was 23.1 µM, the GI50 [57] was 5.99 µM and the TGI [57] was 19.8 µM. It also gave a GI50 [58] of 18.9 µM and a TGI [58] of 34.9 µM.
